ChEMBL document CHEMBL1145560, “Use of receptor chimeras to identify small molecules with high affinity for the dynorphin A binding domain of the kappa opioid receptor” (Bioorg Med Chem Lett, 2008)

What was measured:
[1] = biological target: T1, Kappa-type opioid receptor (Homo sapiens, UniProt P41145); experiment: Agonist activity at human kappa opioid receptor transfected in CHO cells by [35S]GTP-gamma-S binding assay; format: functional, cell-based
[2] = biological target: Delta-type opioid receptor (Homo sapiens, UniProt P41143); experiment: Displacement of [3H]diprenorphine from human delta opioid receptor expressed in CHO-K1 cells; format: cell-based
Mu-type opioid receptor = Mu-type opioid receptor (Homo sapiens, UniProt P35372); experiment: Displacement of [3H]diprenorphine from human mu opioid receptor expressed in CHO-K1 cells; format: cell-based
[3] = biological target: T1, Kappa-type opioid receptor; experiment: Displacement of [3H]diprenorphine from human kappa opioid receptor expressed in CHO-K1 cells; format: cell-based
[4] = Displacement of [3H]diprenorphine from human kappa/mu opioid chimera 3 receptor
[5] = Displacement of [3H]diprenorphine from human kappa/mu opioid chimera 4 receptor

T1 sequence (P41145 whole entry): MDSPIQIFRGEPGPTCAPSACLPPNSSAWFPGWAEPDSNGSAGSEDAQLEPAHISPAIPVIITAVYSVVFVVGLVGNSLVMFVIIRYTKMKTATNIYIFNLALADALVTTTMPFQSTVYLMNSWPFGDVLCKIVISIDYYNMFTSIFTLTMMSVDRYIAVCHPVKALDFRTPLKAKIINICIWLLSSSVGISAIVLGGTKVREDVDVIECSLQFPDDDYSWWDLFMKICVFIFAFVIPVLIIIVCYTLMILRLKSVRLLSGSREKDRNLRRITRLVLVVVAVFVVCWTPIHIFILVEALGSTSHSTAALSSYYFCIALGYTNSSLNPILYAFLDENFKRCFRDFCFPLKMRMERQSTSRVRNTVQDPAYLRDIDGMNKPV
Mu-type opioid receptor, sequence (P35372 whole entry): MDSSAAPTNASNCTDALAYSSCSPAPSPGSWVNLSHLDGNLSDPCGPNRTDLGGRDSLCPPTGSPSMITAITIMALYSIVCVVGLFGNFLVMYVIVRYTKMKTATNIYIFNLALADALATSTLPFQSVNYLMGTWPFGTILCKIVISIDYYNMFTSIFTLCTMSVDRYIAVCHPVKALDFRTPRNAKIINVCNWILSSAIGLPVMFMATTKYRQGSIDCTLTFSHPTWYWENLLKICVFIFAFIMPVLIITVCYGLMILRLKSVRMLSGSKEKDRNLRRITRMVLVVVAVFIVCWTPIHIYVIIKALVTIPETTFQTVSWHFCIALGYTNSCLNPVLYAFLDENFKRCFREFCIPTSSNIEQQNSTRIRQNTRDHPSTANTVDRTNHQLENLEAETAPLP
Delta-type opioid receptor, sequence (P41143 whole entry): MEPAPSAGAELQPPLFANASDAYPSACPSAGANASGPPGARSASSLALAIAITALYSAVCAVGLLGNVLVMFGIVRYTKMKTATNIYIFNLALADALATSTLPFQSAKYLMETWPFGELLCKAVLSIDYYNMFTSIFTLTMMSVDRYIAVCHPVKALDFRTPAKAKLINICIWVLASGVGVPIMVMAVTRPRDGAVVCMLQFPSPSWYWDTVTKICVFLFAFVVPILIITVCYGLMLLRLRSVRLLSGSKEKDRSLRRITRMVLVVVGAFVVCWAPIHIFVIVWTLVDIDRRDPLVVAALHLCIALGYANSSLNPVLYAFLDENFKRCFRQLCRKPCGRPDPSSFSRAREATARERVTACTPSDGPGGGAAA

## COc1cc(CC(=O)N(C)[C@H](CN2CC[C@H](O)C2)c2ccccc2)c(S(=O)(=O)N2CCN(C)CC2)cc1OC
[1]
  EC50: 0.71 nM
[2]
  Ki: 4.4 nM
Mu-type opioid receptor
  Ki: 27 nM
[3]
  Ki: 3.8 nM

## COc1cc(CC(=O)N(C)[C@H](CN2CCCC2)c2ccccc2)c(S(=O)(=O)N(C)C)cc1OC
[4]
  Ki: 3.2 nM
[1]
  EC50: 0.26 nM
[2]
  Ki: 56 nM
Mu-type opioid receptor
  Ki: 42 nM
[3]
  Ki: 0.5 nM
[5]
  Ki: 2.5 nM

## COc1cc(CC(=O)N(C)[C@H](CN2CC[C@H](O)C2)c2ccccc2)c(S(=O)(=O)N(C)C)cc1OC
[4]
  Ki: 6.4 nM
[1]
  EC50: 0.24 nM
[2]
  Ki: 9.3 nM
Mu-type opioid receptor
  Ki: 25 nM
[3]
  Ki: 1.6 nM
[5]
  Ki: 2.8 nM

## CN(C(=O)Cc1cc2c(cc1S(=O)(=O)N(C)C)OCO2)[C@H](CN1CC[C@H](O)C1)c1ccccc1
[4]
  Ki: 4.5 nM
[1]
  EC50: 0.11 nM
[2]
  Ki: 6.2 nM
Mu-type opioid receptor
  Ki: 34 nM
[3]
  Ki: 0.54 nM
[5]
  Ki: 0.5 nM

## CN(C(=O)Cc1cc2c(cc1S(=O)(=O)N(C)Cc1ccccc1)OCO2)[C@H](CN1CCCC1)c1ccccc1
[4]
  Ki: 5.5 nM
[1]
  EC50: 0.12 nM
[2]
  Ki: 3.4 nM
Mu-type opioid receptor
  Ki: 6.5 nM
[3]
  Ki: 0.19 nM
[5]
  Ki: 1.7 nM

## COc1cc(CC(=O)N(C)[C@H](CN2CC[C@H](O)C2)c2ccccc2)c(S(=O)(=O)N2CCCC2)cc1OC
[4]
  Ki: 38 nM
[1]
  EC50: 0.12 nM
[2]
  Ki: 0.85 nM
Mu-type opioid receptor
  Ki: 5.9 nM
[3]
  Ki: 1.1 nM
[5]
  Ki: 8.3 nM

## COc1cc(CC(=O)N(C)[C@H](CN2CCCC2)c2ccccc2)c(S(=O)(=O)N(C)Cc2ccccc2)cc1OC
[4]
  Ki: 3.3 nM
[1]
  EC50: 0.54 nM
[2]
  Ki: 1.5 nM
Mu-type opioid receptor
  Ki: 21 nM
[3]
  Ki: 0.68 nM
[5]
  Ki: 4.8 nM

## CN(C(=O)Cc1cc2c(cc1S(=O)(=O)N(C)C)OCO2)[C@H](CN1CCCC1)c1ccccc1
[4]
  Ki: 5.2 nM
[1]
  EC50: 0.1 nM
[2]
  Ki: 110 nM
Mu-type opioid receptor
  Ki: 47 nM
[3]
  Ki: 0.22 nM
[5]
  Ki: 0.71 nM

## COc1cc(CC(=O)N(C)[C@H](CN2CCCC2)c2ccccc2)c(S(=O)(=O)N2CCOCC2)cc1OC
[4]
  Ki: 1.3 nM
[1]
  EC50: 0.17 nM
[2]
  Ki: 9.4 nM
Mu-type opioid receptor
  Ki: 15 nM
[3]
  Ki: 0.55 nM
[5]
  Ki: 2.2 nM

## COc1cc(CC(=O)N(C)[C@H](CN2CCCC2)c2ccccc2)c(S(=O)(=O)N2CCCC2)cc1OC
[4]
  Ki: 1.5 nM
[1]
  EC50: 0.11 nM
[2]
  Ki: 5.4 nM
Mu-type opioid receptor
  Ki: 14 nM
[3]
  Ki: 0.31 nM
[5]
  Ki: 1.2 nM

## COc1cc(CC(=O)N(C)[C@H](CN2CC[C@H](O)C2)c2ccccc2)c(S(=O)(=O)N2CCOCC2)cc1OC
[1]
  EC50: 0.34 nM
[2]
  Ki: 1.8 nM
Mu-type opioid receptor
  Ki: 9 nM
[3]
  Ki: 1.4 nM

## COc1cc(CC(=O)N(C)[C@H](CN2CCCC2)c2ccccc2)c(S(=O)(=O)N2CCN(C)CC2)cc1OC
[4]
  Ki: 4.8 nM
[1]
  EC50: 0.39 nM
[2]
  Ki: 23 nM
Mu-type opioid receptor
  Ki: 52 nM
[5]
  Ki: 6.8 nM

## CC[C@H](C)[C@H](NC(=O)[C@H](CCCNC(=N)N)NC(=O)[C@H](CCCNC(=N)N)NC(=O)[C@H](CC(C)C)NC(=O)[C@H](Cc1ccccc1)NC(=O)CNC(=O)CNC(=O)[C@@H](N)Cc1ccc(O)cc1)C(=O)N[C@@H](CCCNC(=N)N)C(=O)N1CCC[C@H]1C(=O)N[C@@H](CCCCN)C(=O)N[C@@H](CC(C)C)C(=O)N[C@@H](CCCCN)C(=O)N[C@@H](Cc1c[nH]c2ccccc12)C(=O)N[C@@H](CC(=O)O)C(=O)N[C@@H](CC(N)=O)C(=O)N[C@@H](CCC(N)=O)C(=O)O [DYNORPHIN A (1-17)]
[4]
  Ki: 0.31 nM
[5]
  Ki: 0.18 nM
